Assay: Henry solubility constant Hcp at 303 K (mol/(m3 Pa))
Details: reference: Hovorka et al. (2002)

SMILES	Henry solubility constant Hcp at 303 K
CCOCCOC(C)=O [2-ethoxyethyl ethanoate]	3
COCCOC(C)=O [2-methoxyethyl ethanoate]	3
C=CC#N [2-propenenitrile]	0.076
COC(=O)CC(C)=O [3-oxobutanoic acid, methyl ester]	6.4
COCC(=O)OC [methyl methoxyacetate]	2.5

Assay: Henry solubility constant Hcp at 298.15 K (mol/(m3 Pa))
Details: reference: Hovorka et al. (2002)

SMILES	Henry solubility constant Hcp
CC(C)CO [2-methyl-1-propanol]	0.67
O=C1CCCCC1 [cyclohexanone]	0.86
OC1CCCC1 [cyclopentanol]	2.2
O=C1CCCC1 [cyclopentanone]	0.82
CC#N [ethanenitrile]	0.32
COC(C)=O [methyl ethanoate]	0.083
